Data on 7 compounds can be found in patent US20250387298A1, “FLEXIBLE MEDICAL CONTAINER” (B. Braun Melsungen AG, priority 2024, published 2025).

Where two headings read alike, the source gives them in different places. Marks after values point to notes of the source that are not given here.

The series is described as follows: Simulating experiments: Pip-Taz powder incubated with potential impurities in glass vials, turbidity after reconstitution. The format is physicochemical. The protocol: In order to mimic and evaluate the impact of Ti, Al, Sn, Ni, Mg, Cr, and Si containing impurities on the turbidity of piperacillin and tazobactam formation, the following simulating experiments were carried out (reference 6.7, Notebook BB5254/125, 134, 140-141, 145-146). Powders of piperacillin and tazobactam were mixed with different potential impurities in glass vials and incubated at 40° C. for 3 weeks. […] [table]

Where [1] appears, read: 40° C. for 3 weeks in glass vial, 0.3 g Pip-Taz with 1-2 mg chemical, reconstituted in 12 mL 0.9% NaCl.
Setting [2] is: 40° C. for 3 weeks, chemical without drug, 0.9% NaCl.
[3] abbreviates: Drug & Chemicals minus Chemical only, 40° C. for 3 weeks.
Where [4] appears, read: conclusion from Table 2, by metal/element of the impurity.

Regarding `CC(=O)[O-].CC(=O)[O-].[Fe+2]` [iron(ll) acetate], under setting [1], the “Turbidity, Drug & Chemicals (Target Mole Ratio = 100:1, ~100 ppm for chemicals)” value is 98.77. Further, the “Turbidity, Chemical only (~100 ppm)” value under setting [2] is recorded as 9.66. In addition, the “Turbidity Delta” value under setting [3] is on record as 89.10.

With `O.O.O.O.O.O.[Cl][Cr]([Cl])[Cl]` [chromium (Ill) chloride hexahydrate], the “Turbidity, Drug & Chemicals (Target Mole Ratio = 100:1, ~100 ppm for chemicals)” value under setting [1] is 15.60. The “Turbidity, Chemical only (~100 ppm)” value under setting [2] is 0.18. The “Turbidity Delta” value under setting [3] is reported as 15.42.

For `CC(=O)/C=C(/C)[O-].CC(=O)/C=C(/C)[O-].[O]=[Ti+2]` [titanium (IV) oxyacetylacetonate], under setting [1], the “Turbidity, Drug & Chemicals (Target Mole Ratio = 100:1, ~100 ppm for chemicals)” value is on record as 179.33. Also, the “Turbidity, Chemical only (~100 ppm)” value under setting [2] is 5.44. Further, the “Turbidity Delta” value under setting [3] was 173.89. Moreover, the “impact on the turbidity of piperacillin and tazobactam” value (shortened to “impact on the turbidity”) under setting [4] was “substantial effect”.

For the compound `O=S(=O)([O-])[O-].[Mg+2]` [magnesium sulfate], the “Turbidity, Drug & Chemicals” value is reported as 1.53*; the “impact on the turbidity” value was “no impact”.

On to aluminum chloride hydrate, for which the “Turbidity, Drug & Chemicals (Target Mole Ratio = 100:1, ~100 ppm for chemicals)” value under setting [1] is recorded as 3.01. In addition, the “Turbidity, Chemical only (~100 ppm)” value under setting [2] is recorded as 0.13. Moreover, the “Turbidity Delta” value under setting [3] is 2.88. Moreover, the “impact on the turbidity” value under setting [4] is “substantial effect”.

Regarding `CC(=O)[O-].CC(=O)[O-].CC(=O)[O-].CC(=O)[O-].[Sn+4]` [tin (IV) acetate], the “Turbidity Delta” value is listed as 1.04; the “Turbidity, Chemical only (~100 ppm)” value is given as 0.08; the “Turbidity, Drug & Chemicals (Target Mole Ratio = 100:1, ~100 ppm for chemicals)” value was 1.13.

Take `O[Si](O)(O)C1CCCCC1` [Cyclohexyl-dihydroxyl-hydroxylsilane]: the “Turbidity, Drug & Chemicals (Target Mole Ratio = 100:1, ~100 ppm for chemicals)” value under setting [1] is listed as 18.20. Further, the “Turbidity, Chemical only (~100 ppm)” value under setting [2] was 0.54. Further, the “Turbidity Delta” value under setting [3] is given as 17.66. Besides, under setting [4], the “impact on the turbidity” value was “substantial effect”.
